Biological target: M. tuberculosis 3β-hydroxysteroid dehydrogenase (Mycobacterium tuberculosis, UniProt P9WQP7)
Experiment: 3β-hydroxysteroid dehydrogenase in vitro inhibitory activity assay
Type: biochemical
Conditions: not given

M. tuberculosis 3β-hydroxysteroid dehydrogenase, sequence (P9WQP7 whole entry, looked up): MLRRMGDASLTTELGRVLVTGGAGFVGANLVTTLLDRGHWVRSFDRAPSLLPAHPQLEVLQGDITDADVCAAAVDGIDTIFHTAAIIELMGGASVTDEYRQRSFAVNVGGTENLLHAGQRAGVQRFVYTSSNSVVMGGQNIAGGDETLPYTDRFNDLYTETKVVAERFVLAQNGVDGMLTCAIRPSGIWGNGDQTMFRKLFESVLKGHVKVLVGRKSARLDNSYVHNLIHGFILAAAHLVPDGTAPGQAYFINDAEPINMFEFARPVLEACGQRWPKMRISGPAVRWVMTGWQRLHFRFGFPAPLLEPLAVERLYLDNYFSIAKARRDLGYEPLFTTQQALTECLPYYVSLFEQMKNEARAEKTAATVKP

SMILES | IC50
CC(C)(C)c1ccc(C(F)(F)F)cc1NC(=O)[C@H]1CCC2C3CNC4=CC(=O)CC[C@]4(C)C3CC[C@@]21C (stereo partly shown) | 1 to 50 µM
C[C@]12CCC(=O)C=C1NCC1C2CC[C@@]2(C)C1CC[C@@H]2C(=O)Nc1ccc(N2CCOCC2)cc1 (stereo partly shown) | > 50 µM
CC(C)CCCC(C)[C@H]1CCC2C3CNC4=CC(=O)CC[C@]4(C)C3CC[C@@]21C (stereo partly shown) | < 1 µM
CC(C)(C)c1ccc(C(C)(C)C)c(NC(=O)[C@H]2CCC3C4CNC5=CC(=O)CC[C@]5(C)C4CC[C@@]32C)c1 (stereo partly shown) | 1 to 50 µM

Same assay, conditions: purified enzyme, 150 μM dehydroepiandrosterone, 3.5 mM NAD+, pH 8.5, NADH at 340 nm; read-out: IC50 M. tuberculosis 3β-hydroxysteroid dehydrogenase

SMILES | IC50
CC(C)CCCC(C)[C@H]1CCC2C3C(CC[C@@]21C)[C@@]1(C)CCC(=O)C=C1N[C@H]3C (stereo partly shown) | 1 to 50 µM
C[C@]12CCC(=O)C=C1NCC1C2CC[C@@]2(C)C1CC[C@@H]2C(=O)Nc1ccccc1C(=O)c1ccccc1 (stereo partly shown) | 1 to 50 µM
C[C@]12CCC(=O)C=C1NCC1C2CC[C@@]2(C)C1CC[C@@H]2C(=O)O (stereo partly shown) | > 50 µM

Source: patent US8481530B2, “3β-hydroxysteroid dehydrogenase inhibitors” (The Research Foundation of State University of New York, priority 2007, dated 2013)
